SMILES strings stand for the structures. Values after ≈ are worked out from the molar mass of the structure shown. Like-named read-outs stand apart in the source and are kept apart here.

Data set [1] concerns the target T1, beta-catenin/TCF4 engagement (Homo sapiens, UniProt P35222).
T1 construct: expressed in transfected cells; host or cells: HEK293
T1 sequence (P35222 1-781): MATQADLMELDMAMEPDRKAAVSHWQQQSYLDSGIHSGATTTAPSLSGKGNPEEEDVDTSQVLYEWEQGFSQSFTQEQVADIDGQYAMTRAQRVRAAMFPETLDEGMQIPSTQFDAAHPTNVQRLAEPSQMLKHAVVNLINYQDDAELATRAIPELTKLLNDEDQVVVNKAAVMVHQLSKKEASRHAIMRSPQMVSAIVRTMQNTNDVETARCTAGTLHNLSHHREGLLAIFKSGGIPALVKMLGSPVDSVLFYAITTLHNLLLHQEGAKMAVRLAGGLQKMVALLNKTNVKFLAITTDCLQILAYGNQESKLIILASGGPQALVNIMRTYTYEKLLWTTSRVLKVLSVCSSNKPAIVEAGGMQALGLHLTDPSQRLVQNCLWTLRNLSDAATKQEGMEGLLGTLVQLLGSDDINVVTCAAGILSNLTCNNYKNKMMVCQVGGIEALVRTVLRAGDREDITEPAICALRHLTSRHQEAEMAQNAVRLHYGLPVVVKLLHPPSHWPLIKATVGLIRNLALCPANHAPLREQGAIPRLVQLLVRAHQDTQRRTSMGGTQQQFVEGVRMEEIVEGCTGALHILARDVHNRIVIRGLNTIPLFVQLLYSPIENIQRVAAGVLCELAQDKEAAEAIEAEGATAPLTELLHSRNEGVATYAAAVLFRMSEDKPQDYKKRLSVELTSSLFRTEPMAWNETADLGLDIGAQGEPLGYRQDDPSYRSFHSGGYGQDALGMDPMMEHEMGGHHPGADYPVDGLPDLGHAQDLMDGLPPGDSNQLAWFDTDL
The experiment in a line: Nano-BRET target engagement assay (B-cat-Halo & TCF4-Luc in HEK293 cells). The class given is cell-based. (In BRET a luciferase serves as donor, and the signal depends on an acceptor being close.)

In data set [2] the target is T2, full-length beta-Catenin (Uniprot ID P35222) (Homo sapiens, UniProt P35222).
T2 construct: 10 nM full-length beta-Catenin (Uniprot ID P35222)
T2 sequence (P35222 1-781): T1 sequence (P35222 1-781)
Nature of the data set: Fluorescence polarization IC50 (beta-catenin / 5FAM-TCF4 10-53 competition). The data set is classed as binding. Background: In fluorescence polarisation assays a small probe gives low polarisation when free and higher when bound to something large.

Another data set in a line: Solubility in PBS. The data set is classed as physicochemical. The method, boiled down: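 Steps: ultracentrifuge the peptide PBS solution, inject the supernatant on HPLC, inject a 50 μM peptide DMSO solution as reference, then calculate solubility as area ratio (PBS/DMSO) × 50 uM.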
A short description of a further data set: CHI Log D procedure. The class given is physicochemical. The note with it: for chromatographic logD: pH 7.4, CHI Log D; for CHI Log D: pH 7.4.
Where [3] appears, read: absolute IC50; read-out: NanoBRET Abs IC50.
The mark [4] stands for this setting: fluorescence polarization, beta-catenin, read-out: FP EC50.

In the case of `CC(=O)N1CCC[C@]12CC=CCCCC1(CCCC=CCCCOC(=O)N3CC[C@@](C(=O)N[C@@H](Cc4ccccc4Cl)C(=O)N[C@@H](Cc4csc5ccccc45)C(=O)N[C@@H](CCC(N)=O)C(N)=O)(C3)NC(=O)[C@H]([C@@H](C)O)NC(=O)[C@H](Cc3ccccc3)NC(=O)[C@H](C)NC(=O)[C@H](C)NC(=O)[C@H](CC(=O)O)NC(=O)[C@H](CC(=O)O)NC1=O)NC(=O)[C@H](CC1CCCCC1)NC(=O)[C@H](CC(=O)O)NC2=O` (stereo partly drawn) [I-1042, Ac-PL3-Asp-Cha-B5-Asp-Asp-Ala-Ala-Phe-Thr-PyrS2-2C1F-BztA-Gln-NH2], the IC50 was 11.4 µM in data set [1] (read-out: NanoBRET Abs IC50) and 5 nM in data set [2] (read-out: beta-Catenin FP IC50). In addition, the Solubility in the data set “Solubility in PBS” (Solubility (uM)) is 46 µM (≈ 90.1 µg/mL). Moreover, in “CHI Log D procedure”, the chromatographic logD stood at 2.35.
As for `CC(=O)N1CCC[C@]12CC=CCCCC1(CCCC=CCCCOC(=O)N3CC[C@@](C(=O)N[C@@H](Cc4ccccc4Cl)C(=O)N[C@@H](Cc4csc5ccccc45)C(=O)N[C@@H](CCC(N)=O)C(N)=O)(C3)NC(=O)[C@H]([C@@H](C)O)NC(=O)[C@H](Cc3ccccc3)NC(=O)[C@H](C)NC(=O)[C@H](C)NC(=O)[C@H](CC(=O)O)NC(=O)[C@H](CC(=O)O)NC1=O)NC(=O)[C@H](Cc1ccccc1)NC(=O)[C@H](CC(=O)O)NC2=O` (stereo partly drawn) [I-1043, Ac-PL3-Asp-Phe-B5-Asp-Asp-Ala-Ala-Phe-Thr-PyrS2-2C1F-BztA-Gln-NH2], the figures for the IC50 in data set [1] (read-out: NanoBRET Abs IC50) and in data set [2] (read-out: beta-Catenin FP IC50) were > 20 µM and 12 nM, respectively. In the data set “Solubility in PBS” (Solubility (uM)), this compound yielded a Solubility of 43 µM (≈ 84 µg/mL). For the same compound, the chromatographic logD in the data set “CHI Log D procedure” was 2.15.
`CC(=O)N1CCC[C@]12CC=CCCCC1(CCCC=CCCCOC(=O)N3CC[C@@](C(=O)N[C@@H](Cc4ccccc4Cl)C(=O)N[C@@H](Cc4csc5ccccc45)C(=O)N[C@@H](CCC(N)=O)C(N)=O)(C3)NC(=O)[C@H](CO)NC(=O)[C@H](Cc3ccccc3)NC(=O)[C@H](C)NC(=O)[C@H](C)NC(=O)[C@H](CC(=O)O)NC(=O)[C@H](CC(=O)O)NC1=O)NC(=O)[C@H](Cc1ccccc1)NC(=O)[C@H](CC(=O)O)NC2=O` (stereo partly drawn) [I-1045, Ac-PL3-Asp-Phe-B5-Asp-Asp-Ala-Ala-Phe-Ser-PyrS2-2C1F-BztA-Gln-NH2]: the IC50 was 23.9 µM in data set [1] (setting [3]) and 5 nM in data set [2] (read-out: beta-Catenin FP IC50). The compound further came in with a Solubility in “Solubility in PBS” (Solubility (uM)) of 49 µM (≈ 95 µg/mL). In “CHI Log D procedure”, this compound returned a chromatographic logD of 2.12.
The matching figures for `CC(=O)N1CCC[C@]12CC=CCCCC1(CCCC=CCCCOC(=O)N3CC[C@@](C(=O)N[C@@H](Cc4ccccc4Cl)C(=O)N[C@@H](Cc4csc5ccccc45)C(=O)N[C@@H](CO)C(N)=O)(C3)NC(=O)[C@H](CC(N)=O)NC(=O)[C@H](Cc3ccccc3)NC(=O)[C@H](C)NC(=O)[C@H](C)NC(=O)[C@H](CC(=O)O)NC(=O)[C@H](CC(=O)O)NC1=O)NC(=O)[C@H](CC1CCCCC1)NC(=O)[C@H](CC(=O)O)NC2=O` (stereo partly drawn) [I-1046, Ac-PL3-Asp-Cha-B5-Asp-Asp-Ala-Ala-Phe-Asn-PyrS2-2C1F-BztA-Ser-NH2]: 20.5 µM, 5 nM, 37 µM (≈ 71.5 µg/mL) and 2.4.
Regarding `CC(=O)N1CCC[C@]12CC=CCCCC1(CCCC=CCCCOC(=O)N3CC[C@@](C(=O)N[C@@H](Cc4ccccc4Cl)C(=O)N[C@@H](Cc4csc5ccccc45)C(=O)N[C@@H](CO)C(N)=O)(C3)NC(=O)[C@H](CC(N)=O)NC(=O)[C@H](Cc3ccccc3)NC(=O)[C@H](C)NC(=O)[C@H](C)NC(=O)[C@H](CC(=O)O)NC(=O)[C@H](CC(=O)O)NC1=O)NC(=O)[C@H](Cc1ccccc1)NC(=O)[C@H](CC(=O)O)NC2=O` (stereo partly drawn) [I-1047, Ac-PL3-Asp-Phe-B5-Asp-Asp-Ala-Ala-Phe-Asn-PyrS2-2C1F-BztA-Ser-NH2], the IC50 was found to be 28.4 µM in data set [1] (setting [3]) and 5 nM in data set [2] (read-out: beta-Catenin FP IC50). Moreover, the “Solubility” value in “Solubility in PBS” is 10 µM (≈ 19.3 µg/mL). In “CHI Log D procedure”, the chromatographic logD turned out to be 2.19.
`C[C@@H]1NC(=O)[C@H](C)NC(=O)[C@H](CC(=O)O)NC(=O)[C@H](CC(=O)O)NC(=O)C2(CCCC=CCCCCCC[C@@](C)(C(=O)N[C@@H](Cc3ccsc3)C(=O)N[C@@H](Cc3csc4ccccc34)C(=O)N[C@@H](CCC(N)=O)C(N)=O)NC(=O)[C@H](CC(N)=O)NC(=O)[C@H](Cc3ccccc3)NC1=O)CCCC=CC[C@]1(CCCN1C(=O)CN=[N+]=[N-])C(=O)N[C@@H](CC(=O)O)C(=O)N[C@@H](CC(C)(C)C)C(=O)N2` (stereo partly drawn) [I-1053, AzAc-PL3-Asp-Npg-B5-Asp-Asp-Ala-Ala-Phe-Asn-S8-3Thi-BztA-Gln-NH2]: the IC50 in data set [1] (read-out: NanoBRET Abs IC50; absolute IC50) was > 20 µM; in data set [2] (read-out: FP EC50, fluorescence polarization, beta-catenin) it was 11 nM. In addition, in “Solubility in PBS”, the “Solubility” value stood at 48 µM (≈ 92 µg/mL). For the same compound, the “CHI Log D” value in “CHI Log D procedure” came out at 2.381.
Consider `CC(=O)N1CCC[C@]12CC=CCCCC1(CCCC=CCCCOC(=O)N3CC[C@@](C(=O)N[C@@H](Cc4ccccc4Cl)C(=O)N[C@@H](Cc4csc5ccccc45)C(=O)N[C@@H](CCC(N)=O)C(=O)NCCCCCCN)(C3)NC(=O)[C@H]([C@@H](C)O)NC(=O)[C@H](Cc3ccccc3)NC(=O)[C@H](C)NC(=O)[C@H](C)NC(=O)[C@H](CN(CC(=O)O)CC(F)(F)F)NC(=O)[C@H](CC(=O)O)NC1=O)NC(=O)[C@H](CC(C)(C)C)NC(=O)[C@H](CC(=O)O)NC2=O` (stereo partly drawn) [I-1061, Ac-PL3-Asp-Npg-B5-Asp-TfeGA-Ala-Ala-Phe-Thr-PyrS2-2C1F-BztA-Gln-6AmHex], for which the IC50 in data set [1] (setting [3]) turned out to be 10.3 µM; in data set [2] (read-out: beta-Catenin FP IC50), 6 nM. In the data set “Solubility in PBS”, the “Solubility” value stood at 10 µM (≈ 21.4 µg/mL). Moreover, the chromatographic logD in the data set “CHI Log D procedure” was determined as 2.56.
In the case of `CC(=O)N1CCC[C@]12CC=CCCCC1(CCCC=CCCCOC(=O)N3CC[C@@](C(=O)N[C@@H](Cc4ccccc4)C(=O)N[C@@H](Cc4csc5ccccc45)C(=O)N[C@@H](CCC(N)=O)C(N)=O)(C3)NC(=O)[C@H](CC(C)C)NC(=O)[C@H](Cc3ccccc3)NC(=O)[C@H](C)NC(=O)[C@H](C)NC(=O)[C@H](CC(=O)O)NC(=O)[C@H](CC(=O)O)NC1=O)NC(=O)[C@H](CC(C)(C)C)NC(=O)[C@H](CC(=O)O)NC2=O` (stereo partly drawn) [I-1072, Ac-PL3-Asp-Npg-B5-Asp-Asp-Ala-Ala-Phe-Leu-PyrS2-Phe-BztA-Gln-NH2], the IC50 in data set [1] (read-out: NanoBRET Abs IC50) was 10.5 µM; in data set [2] (setting [4]) it was 723 nM; in data set [2] (read-out: beta-Catenin FP IC50), 10 nM. This compound returned a Solubility in the data set “Solubility in PBS” (Solubility (uM)) of 35 µM (≈ 66.9 µg/mL). In “CHI Log D procedure”, this compound showed a chromatographic logD of 1.39.
Turning to `CC(=O)N1CCC[C@]12CC=CCCCC1(CCCC=CCCCCCC[C@@](C)(C(=O)N[C@@H](Cc3ccccc3Cl)C(=O)N[C@@H](Cc3csc4ccccc34)C(=O)N[C@@H](CCC(N)=O)C(N)=O)NC(=O)[C@H]([C@@H](C)O)NC(=O)[C@H](Cc3ccccc3)NC(=O)[C@H](C)NC(=O)[C@H](C)NC(=O)[C@H](CCC(=O)O)NC(=O)[C@H](CC(=O)O)NC1=O)NC(=O)[C@H](CC(C)(C)C)NC(=O)[C@H](CC(=O)O)NC2=O` (stereo partly drawn) [I-1088, Ac-PL3-Asp-Npg-B5-Asp-Glu-Ala-Ala-Phe-Thr-S8-2ClF-BztA-Gln-NH2], the IC50 in data set [1] (read-out: NanoBRET Abs IC50) worked out at 6.3 µM; in data set [2] (setting [4]), 22 nM; in data set [2] (read-out: beta-Catenin FP IC50), 22 nM. Moreover, the “Solubility” value in “Solubility in PBS” was found to be 44 µM (≈ 83.8 µg/mL). For the same compound, the “CHI Log D” value in the data set “CHI Log D procedure” was 2.8.
As to `CC(=O)N1CCC[C@]12CC=CCCCC1(CCCC=CCCCCCC[C@@](C)(C(=O)N[C@@H](Cc3ccccc3Cl)C(=O)N[C@@H](Cc3csc4ccccc34)C(=O)N[C@@H](CCC(N)=O)C(N)=O)NC(=O)[C@H]([C@@H](C)O)NC(=O)[C@H](Cc3ccccc3)NC(=O)[C@H](C)NC(=O)[C@H](C)NC(=O)[C@H](CCC(=O)O)NC(=O)[C@H](CC(=O)O)NC1=O)NC(=O)[C@H](CC(C)(C)C)NC(=O)[C@H](CC(=O)O)NC2=O` (stereo partly drawn) [I-1089, Ac-PL3-Asp-Npg-B5-Asp-Glu-Ala-Ala-Phe-Thr-S8-2C1F-BztA-Gln-NH2], the IC50 was determined as 8.9 µM in data set [1] (read-out: NanoBRET Abs IC50), 12 nM in data set [2] (setting [4]) and 12 nM in data set [2] (read-out: beta-Catenin FP IC50). For the same compound, the “Solubility” value in “Solubility in PBS” was determined as 43 µM (≈ 81.9 µg/mL). The “CHI Log D” value in “CHI Log D procedure” is recorded as 2.826.

In general, Solubility refers to the concentration that dissolves in the medium under given conditions. As a reminder, the chromatographic logD is lipophilicity estimated from chromatographic retention. A higher chromatographic logD goes with higher lipophilicity.

The values are drawn from patent publication US20240116985A1, “STAPLED PEPTIDES AND METHODS THEREOF” (priority 2020, published 2024).
